Test results reported in patent US8426345B2, “Method of drug design” (Alchemia Limited, priority 2005, dated 2013).

Biological target: T1, Human SST5 somatostatin receptor (Homo sapiens, UniProt P35346)
T1 construct: expressed in transfected cells; host or cells: HEK-293 EBNA cells (membranes)
Experiment: Filter plate radio-ligand binding assay for SST5 receptor ([125I]SST-14 displacement)
Settings: for % SST5 radio-ligand binding displaced at conc 0.25: conc 0.25 μM; for % SST5 radio-ligand binding displaced at conc 1.0: conc 1.0 μM; for % SST5 radio-ligand binding displaced at conc 0.5: conc 0.5 μM; for % SST5 radio-ligand binding displaced at conc 10: conc 10 μM

[1] = compound conc 50 μM, 2P library
[2] = compound conc 250 μM, 2P library
[3] = compound conc 500 μM, 2P library

T1 sequence (P35346 whole entry): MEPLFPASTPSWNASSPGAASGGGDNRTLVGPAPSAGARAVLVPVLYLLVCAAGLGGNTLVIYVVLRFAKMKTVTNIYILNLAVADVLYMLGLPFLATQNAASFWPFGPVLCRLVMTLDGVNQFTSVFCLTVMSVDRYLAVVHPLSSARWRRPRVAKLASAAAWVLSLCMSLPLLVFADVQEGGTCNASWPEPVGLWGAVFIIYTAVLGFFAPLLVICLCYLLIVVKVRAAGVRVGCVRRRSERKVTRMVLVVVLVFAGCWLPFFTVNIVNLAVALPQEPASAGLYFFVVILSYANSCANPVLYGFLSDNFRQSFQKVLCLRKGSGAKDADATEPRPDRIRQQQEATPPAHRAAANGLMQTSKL

SMILES: COC[C@H]1O[C@H](OCc2ccc3ccccc3c2)[C@H](NC(=O)CCN)[C@@H](OCc2nccc3ccccc23)[C@@H]1O [Compound 112]
- % SST5 radio-ligand binding displaced at conc 0.25 (3P library): + (% SST5 radio-ligand binding displaced at cone (μM) 60>+>40%)
- % SST5 radio-ligand binding displaced at conc 1.0 (3P library): ++ (% SST5 radio-ligand binding displaced at conc (μM) >60%)

SMILES: COC[C@H]1O[C@H](OCc2ccc3ccccc3c2)[C@H](NC(=O)CCCN)[C@@H](OCc2cccc3cccnc23)[C@@H]1O [Compound 147]
- % SST5 radio-ligand binding displaced at conc 0.25 (3P library): + (% SST5 radio-ligand binding displaced at cone (μM) 60>+>40%)
- % SST5 radio-ligand binding displaced at conc 1.0 (3P library): ++ (% SST5 radio-ligand binding displaced at conc (μM) >60%)

SMILES: NCCC(=O)NC1C(OCc2ccc3ccccc3c2)OC(COCc2ccc3ccccc3c2)C(O)C1OCc1ccccc1 (mixture of isomers) [Compound 76]
- % SST5 radio-ligand binding displaced at conc 0.25 (3P library): − (% SST5 radio-ligand binding displaced at cone (μM) −<40%)
- % SST5 radio-ligand binding displaced at conc 1.0 (3P library): ++ (% SST5 radio-ligand binding displaced at conc (μM) >60%)

SMILES: CO[C@H]1[C@H](O)[C@@H](COCc2ccc3ccccc3c2)O[C@@H](SC)[C@@H]1NC(=O)CCCN [Compound 23]
- % SST5 radio-ligand binding displaced at conc 50 [1]: − (% SST5 radio-ligand binding displaced at cone (μM) −<40%)
- % SST5 radio-ligand binding displaced at conc 250 [2]: − (% SST5 radio-ligand binding displaced at cone (μM) −<40%)
- % SST5 radio-ligand binding displaced at conc 500 [3]: + (% SST5 radio-ligand binding displaced at cone (μM) 60>+>40%)

SMILES: COC[C@H]1O[C@@H](SC)[C@H](NC(=O)CCN)[C@@H](OCc2ccc3ccccc3c2)[C@@H]1O [Compound 18]
- % SST5 radio-ligand binding displaced at conc 50 [1]: − (% SST5 radio-ligand binding displaced at cone (μM) −<40%)
- % SST5 radio-ligand binding displaced at conc 250 [2]: − (% SST5 radio-ligand binding displaced at cone (μM) −<40%)
- % SST5 radio-ligand binding displaced at conc 500 [3]: − (% SST5 radio-ligand binding displaced at cone (μM) −<40%)

SMILES: COC1C(O)C(COCc2ccc3ccccc3c2)OC(OCc2ccc(Cl)cc2)C1NC(=O)CN (mixture of isomers) [Compound 179]
- % SST5 radio-ligand binding displaced at conc 0.25 (3P library): − (% SST5 radio-ligand binding displaced at cone (μM) −<40%)
- % SST5 radio-ligand binding displaced at conc 1.0 (3P library): − (% SST5 radio-ligand binding displaced at cone (μM) −<40%)

SMILES: COC[C@H]1O[C@H](OCc2ccc3ccccc3c2)[C@H](NC(=O)CCCN)[C@@H](OCc2cccc(Cl)c2)[C@@H]1O [Compound 144]
- % SST5 radio-ligand binding displaced at conc 0.25 (3P library): + (% SST5 radio-ligand binding displaced at cone (μM) 60>+>40%)
- % SST5 radio-ligand binding displaced at conc 1.0 (3P library): ++ (% SST5 radio-ligand binding displaced at conc (μM) >60%)

SMILES: COC[C@H]1O[C@H](OCc2ccc3ccccc3c2)[C@H](NC(=O)CCN)[C@@H](OCc2ccccc2Cl)[C@@H]1O [Compound 109]
- % SST5 radio-ligand binding displaced at conc 0.25 (3P library): − (% SST5 radio-ligand binding displaced at cone (μM) −<40%)
- % SST5 radio-ligand binding displaced at conc 1.0 (3P library): ++ (% SST5 radio-ligand binding displaced at conc (μM) >60%)

SMILES: COC[C@H]1O[C@H](OCc2ccc3ccccc3c2)[C@H](NC(=O)C(C)CN)[C@@H](OCc2ccc3ccccc3c2)[C@@H]1O (stereo partly drawn) [Compound 99]
- % SST5 radio-ligand binding displaced at conc 0.25 (3P library): − (% SST5 radio-ligand binding displaced at cone (μM) −<40%)
- % SST5 radio-ligand binding displaced at conc 1.0 (3P library): + (% SST5 radio-ligand binding displaced at cone (μM) 60>+>40%)

SMILES: COC[C@H]1OC(OCc2ccc3ccccc3c2)[C@H](NC(=O)CCN)[C@@H](OCc2ccc(Cl)cc2)[C@@H]1O (single isomer, unassigned) [Compound 90]
- % SST5 radio-ligand binding displaced at conc 0.25 (3P library): + (% SST5 radio-ligand binding displaced at cone (μM) 60>+>40%)
- % SST5 radio-ligand binding displaced at conc 1.0 (3P library): ++ (% SST5 radio-ligand binding displaced at conc (μM) >60%)

SMILES: COC[C@H]1O[C@H](OCc2ccc3ccccc3c2)[C@H](NC(=O)CCN)[C@H](OC)[C@@H]1O [Compound 59]
- % SST5 radio-ligand binding displaced at conc 50 [1]: + (% SST5 radio-ligand binding displaced at cone (μM) 60>+>40%)
- % SST5 radio-ligand binding displaced at conc 250 [2]: ++ (% SST5 radio-ligand binding displaced at conc (μM) >60%)
- % SST5 radio-ligand binding displaced at conc 500 [3]: ++ (% SST5 radio-ligand binding displaced at conc (μM) >60%)

SMILES: NCCC(=O)NC1C(OCc2ccc3ccccc3c2)OC(COCc2ccc3ccccc3c2)C(O)C1OCc1ccc2ccccc2c1 (stereo not drawn) [Compound 79]
- % SST5 radio-ligand binding displaced at conc 0.25 (3P library): − (% SST5 radio-ligand binding displaced at cone (μM) −<40%)
- % SST5 radio-ligand binding displaced at conc 1.0 (3P library): ++ (% SST5 radio-ligand binding displaced at conc (μM) >60%)

SMILES: NCCC(=O)NC1C(OCc2ccc3ccccc3c2)OC(COCc2ccc(Cl)cc2)C(O)C1OCc1ccc2ccccc2c1 (stereo not drawn) [Compound 84]
- % SST5 radio-ligand binding displaced at conc 0.25 (3P library): − (% SST5 radio-ligand binding displaced at cone (μM) −<40%)
- % SST5 radio-ligand binding displaced at conc 1.0 (3P library): ++ (% SST5 radio-ligand binding displaced at conc (μM) >60%)

SMILES: NCCC(=O)NC1C(OCc2ccc3ccccc3c2)OC(COCc2ccccc2)C(O)C1OCc1ccc2ccccc2c1 (mixture of isomers) [Compound 74]
- % SST5 radio-ligand binding displaced at conc 0.25 (3P library): − (% SST5 radio-ligand binding displaced at cone (μM) −<40%)
- % SST5 radio-ligand binding displaced at conc 1.0 (3P library): ++ (% SST5 radio-ligand binding displaced at conc (μM) >60%)

SMILES: COC[C@H]1O[C@@H](OCc2ccc3ccccc3c2)[C@H](NC(=O)CN)[C@H](OC)[C@@H]1O [Compound 36]
- % SST5 radio-ligand binding displaced at conc 50 [1]: − (% SST5 radio-ligand binding displaced at cone (μM) −<40%)
- % SST5 radio-ligand binding displaced at conc 250 [2]: − (% SST5 radio-ligand binding displaced at cone (μM) −<40%)
- % SST5 radio-ligand binding displaced at conc 500 [3]: + (% SST5 radio-ligand binding displaced at cone (μM) 60>+>40%)

SMILES: COC[C@H]1O[C@@H](OCc2ccc(Cl)cc2)[C@H](NC(=O)CN)[C@H](OC)[C@@H]1O [Compound 159]
- % SST5 radio-ligand binding displaced at conc 50 (conc 50 μM, 3P library): − (% SST5 radio-ligand binding displaced at cone (μM) −<40%)
- % SST5 radio-ligand binding displaced at conc 250 (conc 250 μM, 3P library): − (% SST5 radio-ligand binding displaced at cone (μM) −<40%)
- % SST5 radio-ligand binding displaced at conc 500 (conc 500 μM, 3P library): − (% SST5 radio-ligand binding displaced at cone (μM) −<40%)

SMILES: COC[C@H]1O[C@H](OCc2ccc3ccccc3c2)[C@H](NC(=O)CCCN)[C@@H](OCc2ccc(Oc3ccccc3)cc2)[C@@H]1O [Compound 155]
- % SST5 radio-ligand binding displaced at conc 0.25 (3P library): ++ (% SST5 radio-ligand binding displaced at conc (μM) >60%)
- % SST5 radio-ligand binding displaced at conc 1.0 (3P library): ++ (% SST5 radio-ligand binding displaced at conc (μM) >60%)

SMILES: COC[C@H]1O[C@@H](SC)[C@H](NC(=O)CCCN)[C@H](OCc2ccc3ccccc3c2)[C@@H]1O [Compound 58]
- % SST5 radio-ligand binding displaced at conc 50 [1]: − (% SST5 radio-ligand binding displaced at cone (μM) −<40%)
- % SST5 radio-ligand binding displaced at conc 250 [2]: − (% SST5 radio-ligand binding displaced at cone (μM) −<40%)
- % SST5 radio-ligand binding displaced at conc 500 [3]: − (% SST5 radio-ligand binding displaced at cone (μM) −<40%)

SMILES: COC[C@H]1O[C@@H](OCc2ccc3ccccc3c2)[C@H](NC(=O)CCCN)[C@H](OC)[C@@H]1O [Compound 45]
- % SST5 radio-ligand binding displaced at conc 50 [1]: − (% SST5 radio-ligand binding displaced at cone (μM) −<40%)
- % SST5 radio-ligand binding displaced at conc 250 [2]: + (% SST5 radio-ligand binding displaced at cone (μM) 60>+>40%)
- % SST5 radio-ligand binding displaced at conc 500 [3]: ++ (% SST5 radio-ligand binding displaced at conc (μM) >60%)

SMILES: COC[C@H]1OC(OCc2ccc3ccccc3c2)[C@H](NC(=O)CCN)[C@@H](OCc2ccc(-c3ccccc3)cc2)[C@@H]1O (single isomer, unassigned) [Compound 91]
- % SST5 radio-ligand binding displaced at conc 0.25 (3P library): − (% SST5 radio-ligand binding displaced at cone (μM) −<40%)
- % SST5 radio-ligand binding displaced at conc 1.0 (3P library): − (% SST5 radio-ligand binding displaced at cone (μM) −<40%)

SMILES: COC[C@H]1O[C@H](OCc2ccc3ccccc3c2)[C@H](NC(=O)CCN)[C@H](OCc2ccc3ccccc3c2)[C@@H]1O [Compound 86]
- % SST5 radio-ligand binding displaced at conc 0.5 (3P library): ++ (% SST5 radio-ligand binding displaced at conc (μM) >60%)
- % SST5 radio-ligand binding displaced at conc 10 (3P library): ++ (% SST5 radio-ligand binding displaced at conc (μM) >60%)

SMILES: CO[C@H]1[C@H](O)[C@@H](COCc2ccc3ccccc3c2)O[C@@H](SC)[C@@H]1NC(=O)CN [Compound 8]
- % SST5 radio-ligand binding displaced at conc 50 [1]: − (% SST5 radio-ligand binding displaced at cone (μM) −<40%)
- % SST5 radio-ligand binding displaced at conc 250 [2]: + (% SST5 radio-ligand binding displaced at cone (μM) 60>+>40%)
- % SST5 radio-ligand binding displaced at conc 500 [3]: ++ (% SST5 radio-ligand binding displaced at conc (μM) >60%)

SMILES: COCC1OC(OCc2ccc3ccccc3c2)C(NC(=O)CCN)C(OCc2ccc(Cl)cc2)C1O (mixture of isomers) [Compound 67]
- % SST5 radio-ligand binding displaced at conc 10 (3P library): ++ (% SST5 radio-ligand binding displaced at conc (μM) >60%)

SMILES: COCC1OC(OCc2ccc(Cl)cc2)C(NC(=O)CN)C(OCc2ccc(-c3ccccc3)cc2)C1O (mixture of isomers) [Compound 162]
- % SST5 radio-ligand binding displaced at conc 0.001 (conc 0.001 μM, 3P library): − (% SST5 radio-ligand binding displaced at cone (μM) −<40%)
- % SST5 radio-ligand binding displaced at conc 0.10 (conc 0.10 μM, 3P library): − (% SST5 radio-ligand binding displaced at cone (μM) −<40%)
- % SST5 radio-ligand binding displaced at conc 0.25 (3P library): − (% SST5 radio-ligand binding displaced at cone (μM) −<40%)
- % SST5 radio-ligand binding displaced at conc 0.5 (3P library): − (% SST5 radio-ligand binding displaced at cone (μM) −<40%)
- % SST5 radio-ligand binding displaced at conc 1.0 (3P library): − (% SST5 radio-ligand binding displaced at cone (μM) −<40%)
- % SST5 radio-ligand binding displaced at conc 10 (3P library): + (% SST5 radio-ligand binding displaced at cone (μM) 60>+>40%)

SMILES: NCCC(=O)NC1C(OCc2ccc3ccccc3c2)OC(COCc2ccc(Cl)cc2)C(O)C1OCc1ccc(Cl)cc1 (mixture of isomers) [Compound 72]
- % SST5 radio-ligand binding displaced at conc 0.25 (3P library): − (% SST5 radio-ligand binding displaced at cone (μM) −<40%)
- % SST5 radio-ligand binding displaced at conc 1.0 (3P library): ++ (% SST5 radio-ligand binding displaced at conc (μM) >60%)

SMILES: COC[C@H]1O[C@@H](OCc2ccc3ccccc3c2)[C@H](NC(=O)CCN)[C@@H](OC)[C@@H]1O [Compound 61]
- % SST5 radio-ligand binding displaced at conc 50 (conc 50 μM, 3P library): − (% SST5 radio-ligand binding displaced at cone (μM) −<40%)
- % SST5 radio-ligand binding displaced at conc 250 (conc 250 μM, 3P library): + (% SST5 radio-ligand binding displaced at cone (μM) 60>+>40%)
- % SST5 radio-ligand binding displaced at conc 500 (conc 500 μM, 3P library): ++ (% SST5 radio-ligand binding displaced at conc (μM) >60%)

SMILES: COC[C@H]1OC(OCc2ccc3ccccc3c2)[C@H](NC(=O)CCN)[C@@H](OCc2ccc3ccccc3c2)[C@@H]1O (single isomer, unassigned) [Compound 92]
- % SST5 radio-ligand binding displaced at conc 0.25 (3P library): − (% SST5 radio-ligand binding displaced at cone (μM) −<40%)
- % SST5 radio-ligand binding displaced at conc 1.0 (3P library): + (% SST5 radio-ligand binding displaced at cone (μM) 60>+>40%)
